Calls of active or inactive are those of the source. How the calls were made is not given here.
System: 697B cells, BCR-induced NF-kB luciferase reporter luminescence
Assay: B-cell receptor NF-kB reporter inhibition – 697B cells, luciferase luminescence, dose response (AID 489023)

**Q.** How did the IC50 turn out when `CCn1c(CN2CCN(c3ccc(Cl)cc3)CC2)nc2ccccc21` was run?
**A.** > 80 µM (inactive)

**Q.** Which IC50 does the source give for `Cn1c(=O)n(C)c2cc(NC(=O)CSc3nnc(-c4ccccc4O)n3-c3ccccc3)ccc21` here?
**A.** > 80 µM (inactive)

**Q.** How did the IC50 turn out when `COc1ccc(NC(=O)c2cc3c(Cl)nc4ccccc4c3s2)cc1OC` was run?
**A.** 60.3 µM (inactive)

**Q.** With `CN1C(=O)c2cccc3c(S(=O)(=O)Nc4ccccc4F)ccc1c23` as the compound, how does the IC50 read?
**A.** 57.4 µM (inactive)

**Q.** For `CCc1ccc2nc(Nc3nc(COC)cc(=O)[nH]3)nc(C)c2c1`, which IC50 is on record?
**A.** > 80 µM (inactive)

**Q.** For `CC1=CC(C)(C)Nc2ccc(OC(=O)CN3C(=O)CCC3=O)cc21`, which IC50 is on record?
**A.** 8.56 µM

**Q.** For `O=C(O)CCn1c(O)c(C=C2N=c3ccccc3=N2)sc1=S`, which IC50 is on record?
**A.** 17 µM

**Q.** `CCCOc1ccc(NC(=O)C(=O)NCCCn2ccnc2)cc1` was tested. Which IC50 did it give?
**A.** 14.2 µM

**Q.** `CCOC(=O)Cc1ccc(NC(=O)c2ccc(C(C)(C)C)cc2)cc1` was tested. Which IC50 did it give?
**A.** < 0.16 µM

**Q.** `O=C(CCCN1C(=O)/C(=C/c2ccccc2Cl)SC1=S)NNC(=O)c1ccccc1Cl` was tested. Which IC50 did it give?
**A.** 4.23 µM

**Q.** For `O=C(NCCCN1CCOCC1)c1cc(-c2ccc(Br)cc2)on1`, which IC50 is on record?
**A.** 48.1 µM (inactive)

**Q.** Which IC50 does the source give for `CCCCCC/C=C/c1ccc(OC)c([C@H]2[C@H]3C=CC[C@@H](C)[C@@H]3C(=O)N2Cc2ccccc2)c1` here?
**A.** > 80 µM (inactive)

**Q.** `O=C(Cc1cccc2ccccc12)Nc1ccc(-c2cc3ccccc3oc2=O)cc1` was tested. Which IC50 did it give?
**A.** < 0.16 µM

**Q.** For `CCOc1ccc(-n2c(-c3ccccc3)c[n+]3c2CCCCC3)cc1`, which IC50 is on record?
**A.** > 80 µM (inactive)

**Q.** With `Cn1c(=O)cc(OCCCC(=O)NC2CCCC2)c2ccccc21` as the compound, how does the IC50 read?
**A.** 34.4 µM (inactive)

**Q.** Which IC50 does the source give for `COc1ccc(CC(=O)Nc2cccc(-c3ccc4nnc(C)n4n3)c2)cc1` here?
**A.** 71.7 µM (inactive)

**Q.** With `Cc1c(CCC(=O)N2CCC(C(=O)O)CC2)c(=O)oc2cc3oc4c(c3cc12)CCCC4` as the compound, how does the IC50 read?
**A.** 14 µM

**Q.** `Cn1nc(-c2ccc(N3CCOCC3)c(NS(=O)(=O)c3ccccc3)c2)c2ccccc2c1=O` was tested. Which IC50 did it give?
**A.** > 80 µM (inactive)

**Q.** Which IC50 does the source give for `CCCCCCn1c(-c2ccco2)nc2oc3cc(OC)ccc3c(=O)c2c1=O` here?
**A.** > 80 µM (inactive)

**Q.** How did the IC50 turn out when `CN(C)c1cc[n+](Cc2c(Cl)cccc2Cl)cc1` was run?
**A.** > 80 µM (inactive)

**Q.** Which IC50 does the source give for `CCNC(=O)CCc1nc(-c2ccc(C(C)(C)C)cc2)no1` here?
**A.** < 0.16 µM

**Q.** With `CNC(=O)CCc1nc(-c2ccc(C(C)(C)C)cc2)no1` as the compound, how does the IC50 read?
**A.** < 0.16 µM

**Q.** Which IC50 does the source give for `COc1cc(OC)cc(-c2cc3nc(C)c(CCC(=O)NCc4ccccc4)c(C)n3n2)c1` here?
**A.** 4.7 µM

**Q.** For `CCC(CO)Oc1cc(NCc2ccccc2O)c2ncn(C(C)C)c2c1` (stereo not given), which IC50 is on record?
**A.** > 80 µM (inactive)

**Q.** With `Cc1ccc(CSc2nnc(SCC(=O)N/N=C/C=C/c3ccccc3[N+](=O)[O-])s2)cc1` as the compound, how does the IC50 read?
**A.** > 80 µM (inactive)

**Q.** Which IC50 does the source give for `Cc1cc(C)nc(Sc2ccc([N+](=O)[O-])cc2[N+](=O)[O-])n1` here?
**A.** 1.95 µM

**Q.** How did the IC50 turn out when `COC(=O)[C@@]12OC[C@]34[C@H]([C@@H](O)[C@@H]1O)[C@@]1(C)C(=O)C(O[C@@H]5OC(CO)[C@@H](O)[C@@H](O)[C@@H]5O)=C[C@@H](C)[C@@H]1C[C@H]3OC(=O)[C@H](OC(=O)/C=C(\C)C(C)(C)OC(C)=O)[C@@H]24` (stereo not given in full) was run?
**A.** 0.42 µM

**Q.** With `c1ccc(CCNc2ncnc3ccccc23)cc1` as the compound, how does the IC50 read?
**A.** 60.1 µM (inactive)

**Q.** How did the IC50 turn out when `CC1CCN(CCCNC(=O)COc2cc(=O)n(C)c3ccccc23)CC1` was run?
**A.** > 80 µM (inactive)

**Q.** Which IC50 does the source give for `Cn1c(=O)n(C)c2cc(C(=O)Nc3ccc4c(c3)OCO4)ccc21` here?
**A.** 35.2 µM (inactive)

**Q.** For `CCOC(=O)C(=CNc1cc(C)ccc1C)C(=O)OCC`, which IC50 is on record?
**A.** 49.2 µM (inactive)

**Q.** How did the IC50 turn out when `COc1ccc(-c2ccc(C)cc2)cc1[C@H]1[C@H]2C=CC[C@@H](C)[C@@H]2C(=O)N1Cc1ccccc1` was run?
**A.** > 80 µM (inactive)

**Q.** `Cc1ccc(Nc2nc(N3CCOCC3)nc(N3CCOCC3)n2)cc1C` was tested. Which IC50 did it give?
**A.** 1.33 µM

**Q.** For `Cc1cc(C)c(S(=O)(=O)NCc2ccncc2)c(C)c1`, which IC50 is on record?
**A.** > 80 µM (inactive)

**Q.** `Cc1cc(C)c2nc(NC(=O)[C@@H](NC(=O)c3cccc(S(=O)(=O)N4CCOCC4)c3)C(C)C)sc2c1` was tested. Which IC50 did it give?
**A.** 16 µM

**Q.** With `CNC(=O)c1cccn(Cc2ccc(C(F)(F)F)cc2)c1=O` as the compound, how does the IC50 read?
**A.** 47.9 µM (inactive)

**Q.** For `C/C=C(/C)C(=O)OC1Cc2c(ccc3ccc(=O)oc23)OC1(C)C` (stereo not given), which IC50 is on record?
**A.** > 80 µM (inactive)

**Q.** Which IC50 does the source give for `COc1cc2c3c(c1)c(N=NC(N)=S)c(O)n3C(C)(C)C=C2C` here?
**A.** > 80 µM (inactive)

**Q.** `COc1ccc(NC(=O)c2nnn(Cc3cccc(F)c3)c2N)c(OC)c1` was tested. Which IC50 did it give?
**A.** > 80 µM (inactive)

**Q.** `COC(=O)c1cc(NC(=O)Nc2cc(OC)ccc2OC)cc(C(=O)OC)c1` was tested. Which IC50 did it give?
**A.** > 80 µM (inactive)

**Q.** For `CC(C)OCCCNC(=O)c1c(N)n(/N=C/c2ccccn2)c2nc3ccccc3nc12`, which IC50 is on record?
**A.** > 80 µM (inactive)

**Q.** For `Cc1cccc(C(=O)Nc2ccc(CC(=O)O)cc2)c1`, which IC50 is on record?
**A.** 24.1 µM (inactive)

**Q.** With `CCc1ccc(/C=C2\SC(=S)N(CCCC(=O)Nc3ccccn3)C2=O)cc1` as the compound, how does the IC50 read?
**A.** 0.55 µM

**Q.** How did the IC50 turn out when `CCc1ccc(-c2nc(CSCC(=O)NC3CC3)c(C)o2)cc1` was run?
**A.** 0.41 µM

**Q.** How did the IC50 turn out when `O=C(Nc1cccc(Oc2ccc3c(c2)C(=O)NC3=O)c1)c1cccs1` was run?
**A.** > 80 µM (inactive)

**Q.** For `CCCS(=O)(=O)Nc1cccc(-c2ccc3nnc(C)n3n2)c1`, which IC50 is on record?
**A.** > 80 µM (inactive)

**Q.** How did the IC50 turn out when `CC(C)Cn1c([N+](=O)[O-])nc2c1c(=O)[nH]c(=O)n2C` was run?
**A.** 5.67 µM

**Q.** With `COCCCNC(=O)COc1ccc(-c2nccc(-c3ccccn3)n2)cc1` as the compound, how does the IC50 read?
**A.** 19.4 µM

**Q.** Which IC50 does the source give for `COc1ccc(/C=C2\SC(=O)N(CCCC(=O)Nc3ccc(C(=O)O)cc3)C2=O)cc1OC` here?
**A.** 7.83 µM

**Q.** With `N=c1c2c(n(Cc3cccc(Cl)c3)c3c1CCC3)CCCC2` as the compound, how does the IC50 read?
**A.** 59.9 µM (inactive)

**Q.** `COc1ccc(/C=C2/SC(=S)N(CCCC(=O)Nc3ccc(O)cc3)C2=O)cc1` was tested. Which IC50 did it give?
**A.** 0.44 µM

**Q.** Which IC50 does the source give for `CC(C)C(=O)Nc1ccc(NC(=O)c2ccc3c(c2)OCO3)cc1` here?
**A.** 17.2 µM

**Q.** How did the IC50 turn out when `CC(C)(C)c1ccc(-c2cc(N)n[nH]2)cc1` was run?
**A.** 15.6 µM

**Q.** For `CCOC(=O)Cc1csc(NC(=S)NC(=O)c2ccc(C)cc2)n1`, which IC50 is on record?
**A.** 5.88 µM

**Q.** How did the IC50 turn out when `Cc1ccc(C(=O)N2CCCC(c3ccc(Cl)cc3)=N2)cc1` was run?
**A.** > 80 µM (inactive)

**Q.** With `O=C(NCCC1CCCCN1S(=O)(=O)c1ccc(Cl)cc1)C(=O)NCc1ccncc1` (stereo not given) as the compound, how does the IC50 read?
**A.** 4.22 µM

**Q.** `O=C(CSCCO)Nc1ccc(C23CC4CC(CC(C4)C2)C3)cc1` was tested. Which IC50 did it give?
**A.** > 80 µM (inactive)

**Q.** For `CCCc1nc2c(C)cc(-c3nc4ccccc4n3C)cc2n1Cc1ccc(-c2ccccc2C(=O)O)cc1`, which IC50 is on record?
**A.** 72.5 µM (inactive)

**Q.** How did the IC50 turn out when `Cc1ccc(C(=O)CSc2nnc(COc3cc(C)cc(C)c3)o2)cc1` was run?
**A.** > 80 µM (inactive)

**Q.** For `CCn1c(=O)cc(OCC(=O)NCc2ccc(C)o2)c2ccccc21`, which IC50 is on record?
**A.** > 80 µM (inactive)

**Q.** Which IC50 does the source give for `Cn1c(=O)cc(OCCCC(=O)N2CCCCC2)c2ccccc21` here?
**A.** > 80 µM (inactive)

**Q.** How did the IC50 turn out when `COc1ccc(C(C(=O)NC2CCCCC2)N(C(=O)CCl)c2ccc(OC)cc2)cc1` (stereo not given) was run?
**A.** 0.57 µM

**Q.** For `CCOc1ccc(-c2c[n+]3c(n2-c2ccccc2)CCCCC3)cc1`, which IC50 is on record?
**A.** > 80 µM (inactive)

**Q.** For `CC(C)CCNC(=O)CCCOc1cc(=O)n(C)c2ccccc12`, which IC50 is on record?
**A.** 64.3 µM (inactive)

**Q.** Which IC50 does the source give for `Oc1cc(O)cc(-c2cc3ccc(O)cc3o2)c1` here?
**A.** > 80 µM (inactive)

**Q.** For `Cc1ccc(-c2nn3c(C)nnc3c3ccccc23)cc1S(=O)(=O)N1CCN(CCO)CC1`, which IC50 is on record?
**A.** 26.5 µM (inactive)

**Q.** With `CCn1c(=O)cc(SCC(=O)N2CCC(C)CC2)c2ccccc21` as the compound, how does the IC50 read?
**A.** > 80 µM (inactive)

**Q.** How did the IC50 turn out when `O=C(O)COc1ccc(-c2nccc(-c3ccccn3)n2)cc1` was run?
**A.** 21.7 µM (inactive)

**Q.** Which IC50 does the source give for `Cc1c(CCO)c(=O)oc2n[nH]c(-c3ccccc3)c12` here?
**A.** 13.8 µM

**Q.** With `CCOC(=O)C1CCN(c2ncnc3c2cnn3-c2ccc(OC)cc2)CC1` as the compound, how does the IC50 read?
**A.** > 80 µM (inactive)
